Results taken from patent publication US20190000790A1, “PPAR-GAMMA ACTIVATORS AND THEIR THE[…]” (THERIAC B[…]., priority 2015, published 2019).

Legend:
human PPARγ = test: Reporter gene bioassay of PPAR transcriptional activity (Gal4-hPPARγ / UAStkLuc luciferase in 293 cells); assay type: cell-based; details: each compound alone, 16 h, FIGS. 1A and B
Protocol: FIG. 1A, 1B illustrate a transcriptional activation of PPARγ by BNZ and PAA. Luciferase assay was performed in 293 cells transfected with Gal4-hPPARγ and UAStkLuc reporter construct and treated for 16 h with respective compounds. Data are expressed as fold change ±SEM compared to untreated cells set at 1.0.*, P<0.05; **, P<0.001.
FIG. 1C illustrates the additive effect of SB and PAA on transcriptional activity of PPARγ. Luciferase assay was performed in 293 cells transfected with Gal4-hPPARγ and UAStkLuc reporter construct and treated 10 mM of each compound for 16 h. Data are expressed as fold change ±SEM compared to untreated cells set at 1.0.*, P<0.001.
Human embryonic kidney 293 cells were seeded in DMEM supplemented with 5% charcoal dextran-treated FBS and transfected with Gal4 DBD fusion of PPAR isoforms and UAStkLuc reporter as described (12). Cells were then treated for 16 hrs and harvested for luciferase activity. Luciferase values were normalized for transfection efficiency to β-galactosidase activity and expressed as relative fold response compared to untreated cells. Data are derived from at least four independent experiments performed in triplicates. […]

CD4+ T cells = test: Treatment of CD4+ T cells from healthy volunteers and Systemic Lupus Erythematosus patients; assay type: cell-based, human; details: preliminary data, FIG. 6; CD4+ T cells stimulated with α-CD3/CD28 beads
From the text: FIG. 6 illustrates BZN+PAA (HIP-002) treatment of T cells derived from healthy volunteer (HV) and Systemic Lupus Erythematous (SLE) patients.
Next, we examined if BZN+PAA can improve immune function of T lymphocytes in Systemic Lupus Erythematosus (SLE). […] Dilutions effects of the BZN+PAA drug (HIP-002) are shown. (FIG. 6A). CD4+ T cells were stimulated with α-CD3/CD28 beads for 4 (red) or 5 (black) days and cytotoxicity determined by Live/Dead staining. (FIG. 6B) CD4+ T cells were stimulated as in (FIG. 6A) for 5 days, and the surface expression of CD154 and CD25 measured by FACS analysis. (FIG. 6C) CD4+ T cells were stimulated as in (FIG. 6A), and proliferation measured by dilution of the CellTrace Violet dye. White bars: HV; n=2-3. Gray bars: SLE patients; n=3-4. * p<0.05, ** p<0.01, *** p<0.0001.

For `O=C([O-])c1ccccc1.[Na+]` [BNZ, benzoate], the “PPARγ activity (transcriptional activation, luciferase)” value (human PPARγ) was “significantly potent in increasing PPARγ activity” and the “effect on growth and survival of T lymphocytes” value (CD4+ T cells) was “beneficial effect on the growth and survival of these cells”.
